Source: ChEMBL document CHEMBL1141342, “Cytotoxic C47-polyacetylene carboxylic acids from a marine sponge Pertrosia sp” (J Nat Prod, 2007)
Converted amounts (≈) assume the structure as drawn.

Tested on: P388
Assay: Cytotoxicity against mouse P388 cells
Assay type: functional, cell-based

Compound	IC50 [µg/mL]
C#C[C@@H](O)/C=C/CCCCCCC#C[C@H](O)C#C/C=C/CC/C=C\CCCC/C=C\CCCCCCCCCCCCCC/C=C\C#CC(=O)O [PETROFORMYNIC ACID B]	0.4 (≈ 0.574 µM)
C#C[C@@H](O)/C=C/CCCCCCC#C[C@H](O)C#C/C=C/CC/C=C\CCCC/C=C\CCCCCCCCCCCCCCCCC#CC(=O)O [PETROFORMYNIC ACID C]	0.4 (≈ 0.572 µM)
